From PMC6518372, “An enzymatically stable GIP/xenin hybrid peptide restores GIP sensitivity, enhances beta cell function and improves glucose homeostasis in high-fat-fed mice” (Diabetologia, 2016)
Where a SMILES comes first, the peptide text is derived from it. [ ]: non-standard residue; d: D form.

Key:
purified porcine DPP-4 = purified porcine DPP-4 (Sus scrofa, UniProt P22411); test: DPP-4 degradation / in vitro DPP-4 half-life; settings: 20 μg peptide, 5 mU purified DPP-4, up to 12 h, HPLC
Method: Peptide (20 μg) DPP-4 degradation profiles (5 μl purified DPP-4, 5 mU; Sigma-Aldrich, UK) were assessed as described previously.
For calculation of experimental molecular masses, peptide samples (1 µg) were mixed with α-cyano-4-hydroxycinnamic acid (1 µg) and applied to a Voyager-DE BioSpectrometry Workstation and mass-to-charge (m/z) ratio verses peak intensity recorded by MALDI-TOF mass spectrometry. DPP-4 half-life was assessed by incubating peptides (37°C in 50 mmol/L TEA-HCl; pH 7.8) with 5 mU purified porcine DPP-4 for 0, 1, 2, 4, 8 and 12 h. Degradation profiles were obtained using rp-HPLC analysis and HPLC peak area data used to calculate percentage intact peptide remaining at each time point.

BRIN-BD11 cells [1] = test: Intracellular Ca2+ in BRIN-BD11 cells (FLIPR Calcium 5); assay type: cell-based, rat; settings: peptide 10^−6 mol/l, 5.6 mmol/l glucose, 5 min, AUC 0–300 s
Method: (§1) BRIN-BD11 cells were used to assess the insulin-releasing activity of test peptides, as described previously. This hybrid cell line (ECACC 10033003) was originally generated in-house by electrofusion of a primary culture of New England Deaconess Hospital (NEDH) rat pancreatic islets with RINm5F (a cell line derived from an NEDH rat insulinoma), and has been mycoplasma eradicated. For details of experimental conditions please see ESM Methods. Insulin was measured by radioimmunoassay. We assessed the impact of GIP and neurotensin receptors on (DAla^2)GIP/xenin-8-Gln-induced insulin secretion in BRIN-BD11 cells. Cells were incubated in 5.6 mmol/l glucose with (DAla^2)GIP/xenin-8-Gln (10^−6 mol/l) alone or in combination with the GIP receptor antagonist GIP(6-30)Cex-K^40[Pal] [32] (where Pal is palmitate) or the neurotensin receptor antagonist SR142948A (Sigma, Poole, UK), and insulin secretion determined as described above. In addition, to determine mechanisms, intracellular Ca^2+ was also measured in BRIN-BD11 cells following treatment with test peptides (10^−6 mol/l), using a Flexstation scanning fluorometer (FLIPR Calcium 5 assay kit; Molecular Devices, Sunnyvale, CA, USA), as described previously.

lean control mice [2] = test: Acute glucose-lowering and insulin-releasing effects in lean mice; assay type: in vivo, mouse; settings: 25 nmol/kg i.p. with glucose 18 mmol/kg, non-fasted lean mice, vs glucose alone
Method: Specific information on acute feeding, glucose homeostasis and insulin-secretory studies is given in ESM Methods. To assess the impact of GIP and neurotensin receptor activation on (DAla^2)GIP/xenin-8-Gln-induced glucose-lowering and insulin-secretory actions in mice, (DAla^2)GIP/xenin-8-Gln was administered by i.p. injection (25 nmol/kg body weight) in combination with glucose (18 mmol/kg) in the absence and presence of GIP(6-30)Cex-K^40[Pal] and SR142948A (both at 25 nmol/kg), and glucose and insulin were measured as described above. In a final series of experiments, test peptides (25 nmol/kg) or saline vehicle (0.9% wt/vol. NaCl) were injected 4 h before a glucose load (18 mmol/kg) in non-fasted mice and blood glucose and plasma insulin measured as above. […]
(§2) Animals Acute animal studies were conducted in male NIH Swiss mice (12-14 weeks old, Harlan Ltd, UK) maintained on a standard rodent maintenance diet (10% fat, 30% protein and 60% carbohydrate, Trouw Nutrition, UK). Prior to commencement of longer term studies, all animals, except lean controls that continued on rodent maintenance diet, were maintained on a high-fat diet (45% fat, 35% carbohydrate and 20% protein, Special Diet Services, UK) for 12 weeks. This diet […]
(§3) individually in an air-conditioned room at 22 ± 2 °C with a 12 h light:12 h dark cycle and had free access to food and water. Animal experiments were carried out in accordance with the UK Animals (Scientific Procedures) Act 1986.
(§4) Acute in vivo effects in lean mice For food intake studies, fasted (18 h) mice were given intraperitoneal (i.p) injections of peptides at a dose of 25, 100 or 250 nmol/kg bw. Mice were then allowed free access to normal chow for 180 mins and cumulative food intake measured. For glucose homeostasis and […]

lean control mice [3] = test: Persistent glucose-lowering and insulin-releasing effects, peptide 4 h before glucose load; assay type: in vivo, mouse; settings: 25 nmol/kg injected 4 h before i.p. glucose load 18 mmol/kg, non-fasted lean mice, vs saline
Method: Specific information on acute feeding, glucose homeostasis and insulin-secretory studies is given in ESM Methods. To assess the impact of GIP and neurotensin receptor activation on (DAla^2)GIP/xenin-8-Gln-induced glucose-lowering and insulin-secretory actions in mice, (DAla^2)GIP/xenin-8-Gln was administered by i.p. injection (25 nmol/kg body weight) in combination with glucose (18 mmol/kg) in the absence and presence of GIP(6-30)Cex-K^40[Pal] and SR142948A (both at 25 nmol/kg), and glucose and insulin were measured as described above. In a final series of experiments, test peptides (25 nmol/kg) or saline vehicle (0.9% wt/vol. NaCl) were injected 4 h before a glucose load (18 mmol/kg) in non-fasted mice and blood glucose and plasma insulin measured as above.

BRIN-BD11 cells [4] = test: In vitro insulin secretion from BRIN-BD11 cells; assay type: cell-based, rat; settings: peptide 10^−6 mol/l, antagonist 10^−6 mol/l, 5.6 mmol/l glucose, 20 min
Method: as §1
In vitro insulin release studies Cells were seeded at a density of 150,000 cells/well in 24-well plates (Nunc, Roskilde, Denmark) and allowed to attach overnight at 37 °C. Culture medium was removed and cells were pre-incubated in Krebs–Ringer bicarbonate buffer (containing 0.5% (w/v) BSA, pH 7.4) supplemented with 1.1 mmol/l glucose for 40 min at 37 °C. Following the pre-incubation, experiments (n=8) were performed in presence of glucose (5.6 or 16.7 mmol/l) with a […]
incubations, aliquots of assay buffer were collected from each well and stored at -20 °C prior to […]
Acute in vivo effects in lean mice For food intake studies, fasted (18 h) mice were given intraperitoneal (i.p) injections of peptides at a dose of 25, 100 or 250 nmol/kg bw. Mice were then allowed free access to normal chow for 180 mins and cumulative food intake measured. […]

lean control mice [5] = test: Acute cumulative food intake in lean mice; assay type: in vivo, mouse; settings: 250 nmol/kg i.p., 18 h fasted lean mice, 120 min post injection, vs saline
Method: as §2, §3, §4

purified porcine DPP-4, sequence (P22411 whole entry): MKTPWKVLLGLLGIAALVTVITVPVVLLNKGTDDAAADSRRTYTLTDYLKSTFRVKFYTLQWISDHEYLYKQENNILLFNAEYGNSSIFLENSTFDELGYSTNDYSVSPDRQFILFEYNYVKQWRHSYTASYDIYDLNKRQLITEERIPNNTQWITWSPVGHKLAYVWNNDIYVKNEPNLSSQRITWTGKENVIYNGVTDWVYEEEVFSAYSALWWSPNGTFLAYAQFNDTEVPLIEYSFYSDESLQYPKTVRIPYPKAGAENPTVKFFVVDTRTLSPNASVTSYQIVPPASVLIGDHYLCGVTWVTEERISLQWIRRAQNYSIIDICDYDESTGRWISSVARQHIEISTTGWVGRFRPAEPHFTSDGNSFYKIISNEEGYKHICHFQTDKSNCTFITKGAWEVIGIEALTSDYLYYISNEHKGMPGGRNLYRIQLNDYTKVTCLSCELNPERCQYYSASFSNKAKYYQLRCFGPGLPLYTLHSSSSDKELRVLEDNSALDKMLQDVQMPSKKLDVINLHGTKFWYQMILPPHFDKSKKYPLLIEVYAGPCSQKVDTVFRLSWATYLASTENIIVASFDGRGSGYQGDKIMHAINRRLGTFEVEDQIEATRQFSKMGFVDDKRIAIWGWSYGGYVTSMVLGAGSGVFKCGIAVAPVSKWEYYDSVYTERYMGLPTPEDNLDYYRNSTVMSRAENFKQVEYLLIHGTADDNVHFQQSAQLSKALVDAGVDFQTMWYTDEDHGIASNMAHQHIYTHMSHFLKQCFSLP

## CC[C@H](C)[C@H](NC(=O)[C@H](CO)NC(=O)[C@H](Cc1ccc(O)cc1)NC(=O)[C@H](CC(=O)O)NC(=O)[C@H](CO)NC(=O)[C@@H](NC(=O)[C@H](Cc1ccccc1)NC(=O)[C@@H](NC(=O)CNC(=O)[C@H](CCC(=O)O)NC(=O)[C@@H](C)NC(=O)[C@@H](N)Cc1ccc(O)cc1)[C@@H](C)O)[C@@H](C)CC)C(=O)N[C@@H](C)C(=O)N[C@@H](CCSC)C(=O)N[C@@H](Cc1c[nH]cn1)C(=O)N1CCC[C@H]1C(=O)N[C@@H](CCC(N)=O)C(=O)N[C@@H](CCC(N)=O)C(=O)N1CCC[C@H]1C(=O)N[C@@H](Cc1c[nH]c2ccccc12)C(=O)N[C@H](C(=O)N[C@@H](CC(C)C)C(=O)O)[C@@H](C)CC [(DAla^2)GIP/xenin-8-Gln] (H-Y[dA]EGTFISDYSIAMHPQQPWIL-OH)
Purified porcine DPP-4
  Stability when incubated in the presence of DPP-4: remained fully intact

## CC[C@H](C)[C@H](NC(=O)[C@H](Cc1c[nH]c2ccccc12)NC(=O)[C@@H]1CCCN1C(=O)[C@H](CCC(N)=O)NC(=O)[C@H](CCC(N)=O)NC(=O)[C@@H]1CCCN1C(=O)[C@@H](N)Cc1c[nH]cn1)C(=O)N[C@@H](CC(C)C)C(=O)O [xenin-8-Gln] (H-HPQQPWIL-OH)
BRIN-BD11 cells [1]
  Effect on intracellular Ca^2+ concentrations: Neither, (DAla^2)GIP, xenin-8-Gln nor (DAla^2)GIP/xenin-8-Gln had any effect
Lean control mice [2]; 30 min post injection
  Blood glucose: significantly (p < 0.05) lowered blood glucose values
Lean control mice [2]
  Overall AUC blood glucose: significantly (p < 0.05) decreased overall AUC blood glucose values
Lean control mice [3]
  Overall AUC for blood glucose after glucose challenge: devoid of glucose-lowering or insulin-releasing effects
  Plasma insulin AUC after glucose challenge: devoid of glucose-lowering or insulin-releasing effects
BRIN-BD11 cells [4]
  Peptide-mediated insulin secretion in presence of neurotensin receptor antagonist SR142948A: similar, but less prominent, effect
Lean control mice [5]
  Cumulative food intake: significant (p < 0.05) reductions in food intake
